Reference: patent US11718633B2, “Indole compounds, process for the preparation and use thereof” (priority 2018, dated 2023)
Converted amounts (≈) assume the structure as drawn.

Tests used:
[1] = test system: drug-sensitive Mycobacterium tuberculosis strains; details: drug-sensitive M. tuberculosis; cited from earlier work
[2] = test system: TB aerosol lung infection model; details: in vivo; cited from earlier work
Mtb. H37Rv = assay: Antibacterial susceptibility testing, broth microdilution MIC; format: cell-based, Mycobacterium tuberculosis; details: M. tuberculosis H37Rv ATCC 27294, 7 days, 37° C., no visible growth; for MIC: Mycobacterium tuberculosis, ATCC 27294 / H37Rv, 168 h, read-out: MIC against mycobacterium tuberculosis Mtb. H37Rv
[3] = In vitro solubility in buffer at different pH (HPLC); details: for solubility at 5 min: kinetic from dmso stock
physchem = details: kinetic from dmso stock
[4] = pH 1.2, simulated gastric fluid

In the case of `C[C@@H]1[C@H]2C[C@@H](C[C@H]1NC(=O)c1cc3c(F)cc(F)cc3[nH]1)C2(C)C` [4,6-difluoro-N-((1R,2R,3R,5S)-2,6,6-trimethylbicyclo[3.1.1]heptan-3-yl)-1H-indole-2-carboxamide], the MIC [1] is given as 0.012 µM (≈ 0.00399 µg/mL), the SI [1] is given as at least 16000 and the “activity in the TB aerosol lung infection model (in words)” value [2] is given as “excellent activity”.

Work on `CC1(C)CCC(NC(=O)c2cc3ccccc3[nH]2)CC1` [Compound (a), N-(4,4-dimethylcyclohexyl)-1H-indole-2-carboxamide] yielded an MIC (Mtb. H37Rv) of 0.06 µg/mL (≈ 0.222 µM).

With `C[Si]1(C)CCC(NC(=O)c2cc3ccccc3[nH]2)CC1` [Compound (b), N-(1,1-dimethylsilinan-4-yl)-1H-indole-2-carboxamide] the MIC (Mtb. H37Rv) was 0.03 µg/mL (≈ 0.105 µM).

For `C[Si]1(C)CCN(NC(=O)c2cc3ccccc3[nH]2)CC1` [Compound (c), N-(4,4-dimethyl-1,4-azasilinan-1-yl)-1H-indole-2-carboxamide], the MIC (Mtb. H37Rv) was 2 µg/mL (≈ 6.96 µM).

For `C[Si]1(C)CCN(C(=O)c2cc3ccccc3[nH]2)CC1` [Compound (d), (4,4-dimethyl-1,4-azasilinan-1-yl)(1H-indol-2-yl)methanone], the MIC (Mtb. H37Rv) was 32 µg/mL (≈ 117 µM).

Compound `C[Si]1(C)CCC(NC(=O)c2cc3c(Cl)cc(Cl)cc3[nH]2)CC1` [Compound (e), 4,6-dichloro-N-(1,1-dimethylsilinan-4-yl)-1H-indole-2-carboxamide] has an MIC (Mtb. H37Rv) of 0.03 µg/mL (≈ 0.0844 µM).

With `C[Si]1(C)CCN(NC(=O)c2cc3c(Cl)cc(Cl)cc3[nH]2)CC1` [Compound (f), 4,6-dichloro-N-(4,4-dimethyl-1,4-azasilinan-1-yl)-1H-indole-2-carboxamide] the MIC (Mtb. H37Rv) was 0.03 µg/mL (≈ 0.0842 µM), the “aqueous solubility at the acidic pH (in words)” value (shortened to “aqueous solubility”) [3] was “good aqueous solubility” and the solubility at 5 min [3, 4] was 40.4 µM (≈ 14.4 µg/mL). The solubility at 5 min ([3]; pH 2.2, aqueous buffer) was 26.3 µM (≈ 9.37 µg/mL), the solubility at 5 min ([3]; pH 4.5, aqueous buffer) was 2.57 µM (≈ 0.916 µg/mL) and the solubility at 5 min ([3]; pH 7.4, aqueous buffer) was 2.57 µM (≈ 0.916 µg/mL). The solubility at 5 min ([3]; pH 10.2, aqueous buffer) was 2.7 µM (≈ 0.962 µg/mL).

`C[Si]1(C)CCN(C(=O)c2cc3c(Cl)cc(Cl)cc3[nH]2)CC1` [Compound (g), (4,6-dichloro-1H-indol-2-yl)(4,4-dimethyl-1,4-azasilinan-1-yl)methanone] showed an MIC (Mtb. H37Rv) of 16 µg/mL (≈ 46.9 µM).

`CC1(C)CCN(NC(=O)c2cc3c(Cl)cc(Cl)cc3[nH]2)CC1` [Compound (h), 4,6-dichloro-N-(4,4-dimethylpiperidin-1-yl)-1H-indole-2-carboxamide] showed a solubility at 5 min (physchem; [4]) of 41.1 µM (≈ 14 µg/mL), a solubility at 5 min (physchem; pH 2.2, aqueous buffer) of 30 µM (≈ 10.2 µg/mL) and a solubility at 5 min (physchem; pH 4.5, aqueous buffer) of 8.6 µM (≈ 2.93 µg/mL). It also gave a solubility at 5 min (physchem; pH 7.4, aqueous buffer) of 6.32 µM (≈ 2.15 µg/mL) and a solubility at 5 min (physchem; pH 10.2, aqueous buffer) of 8.67 µM (≈ 2.95 µg/mL).

Compound `C[Si]1(C)CCC(NC(=O)c2cc3c(F)cc(F)cc3[nH]2)CC1` [Compound (i), N-(1,1-dimethylsilinan-4-yl)-4,6-difluoro-1H-indole-2-carboxamide] has an MIC (Mtb. H37Rv) of 0.03 µg/mL (≈ 0.093 µM) and a solubility at 5 min ([3]; pH 10.2, aqueous buffer) of 9.03 µM (≈ 2.91 µg/mL).

In the case of `C[Si]1(C)CCN(NC(=O)c2cc3c(F)cc(F)cc3[nH]2)CC1` [Compound (j), N-(4,4-dimethyl-1,4-azasilinan-1-yl)-4,6-difluoro-1H-indole-2-carboxamide], the MIC (Mtb. H37Rv) is reported as 0.125 µg/mL (≈ 0.386 µM), the “aqueous solubility” value [3] is reported as “good aqueous solubility” and the solubility at 5 min [3, 4] is reported as 49.7 µM (≈ 16.1 µg/mL). The solubility at 5 min ([3]; pH 2.2, aqueous buffer) was 31.3 µM (≈ 10.1 µg/mL), the solubility at 5 min ([3]; pH 4.5, aqueous buffer) was 1.01 µM (≈ 0.327 µg/mL) and the solubility at 5 min ([3]; pH 7.4, aqueous buffer) was 1 µM (≈ 0.323 µg/mL). For the same compound, the solubility at 5 min ([3]; pH 10.2, aqueous buffer) was 1.1 µM (≈ 0.356 µg/mL).

Compound `C[Si]1(C)CCN(C(=O)c2cc3c(F)cc(F)cc3[nH]2)CC1` [Compound (k), (4,6-difluoro-1H-indol-2-yl)(4,4-dimethyl-1,4-azasilinan-1-yl)methanone] has an MIC (Mtb. H37Rv) of 32 µg/mL (≈ 104 µM).

`CC1(C)CCN(NC(=O)c2cc3c(F)cc(F)cc3[nH]2)CC1` [Compound (l), N-(4,4-dimethylpiperidin-1-yl)-4,6-difluoro-1H-indole-2-carboxamide] showed a solubility at 5 min (physchem; [4]) of 49.6 µM (≈ 15.3 µg/mL), a solubility at 5 min (physchem; pH 2.2, aqueous buffer) of 46.4 µM (≈ 14.3 µg/mL) and a solubility at 5 min (physchem; pH 4.5, aqueous buffer) of 17.3 µM (≈ 5.31 µg/mL). The solubility at 5 min (physchem; pH 7.4, aqueous buffer) was 29.4 µM (≈ 9.04 µg/mL) and the solubility at 5 min (physchem; pH 10.2, aqueous buffer) was 21.4 µM (≈ 6.57 µg/mL).

With `C[Si]1(C)CCN(NC(=O)c2cc3c(Cl)cc(Cl)cc3[nH]2)CC1.Cl` [Compound (m), 4,6-dichloro-N-(4,4-dimethyl-1,4-azasilinan-1-yl)-1H-indole-2-carboxamide hydrochloride] the “aqueous solubility” value [3] was “good aqueous solubility”, the solubility at 5 min [3, 4] was 38.6 µM and the solubility at 5 min ([3]; pH 2.2, aqueous buffer) was 28.4 µM. For the same compound, the solubility at 5 min ([3]; pH 4.5, aqueous buffer) was 2.55 µM, the solubility at 5 min ([3]; pH 7.4, aqueous buffer) was 2.73 µM and the solubility at 5 min ([3]; pH 10.2, aqueous buffer) was 2.46 µM.

Compound `CC1(C)CCN(NC(=O)c2cc3c(Cl)cc(Cl)cc3[nH]2)CC1.Cl` [Compound (n), 4,6-dichloro-N-(4,4-dimethylpiperidin-1-yl)-1H-indole-2-carboxamide hydrochloride] has a solubility at 5 min (physchem; [4]) of 42.6 µM, a solubility at 5 min (physchem; pH 2.2, aqueous buffer) of 26.2 µM and a solubility at 5 min (physchem; pH 4.5, aqueous buffer) of 7.24 µM. For the same compound, the solubility at 5 min (physchem; pH 7.4, aqueous buffer) was 10.6 µM and the solubility at 5 min (physchem; pH 10.2, aqueous buffer) was 9.89 µM.

In the case of `CC1(C)CCC(NC(=O)c2cc3c(Cl)cc(Cl)cc3[nH]2)CC1` [NITD 304, reference compound], the “MIC against mycobacterium tuberculosis Mtb. H37Rv” value (Mtb. H37Rv) is reported as 0.06 µg/mL (≈ 0.177 µM) and the “Solubility in DMSO (standard solution)” value ([3]; DMSO @ 10 μM Concentration) is reported as “Insoluble in DMSO @ 10 μM Concentration”.

For `CC1(C)CCC(NC(=O)c2cc3c(F)cc(F)cc3[nH]2)CC1` [NITD 349, reference compound], the “MIC against mycobacterium tuberculosis Mtb. H37Rv” value (Mtb. H37Rv) was 0.03 µg/mL (≈ 0.0979 µM), the “Solubility pH 1.2” value ([3]; buffer pH 1.2) was 0.24 μM and the “Solubility pH 2.2” value ([3]; buffer pH 2.2) was 0.29 μM. The “Solubility pH 4.5” value ([3]; buffer pH 4.5) was 0.15 μM, the “Solubility pH 7.4” value ([3]; buffer pH 7.4) was 0.24 μM and the “Solubility pH 10.2” value ([3]; buffer pH 10.2) was 7.30 μM.
